The record followed here is ChEMBL document CHEMBL1201862, “PubChem BioAssay data set” (2004).

Test systems include CCRF-CEM; SR; NCI-H460; NCI-H23; U-251; HL-60; MDA-N; SNB-19; A549; BT-549; Hs-578T; SK-MEL-2; SK-MEL-28; DU-145; MDA-MB-231; A498; RPMI-8226; 786-0; SF-295; SF-268.
What all share (test): NCI-60 cell line screen, 48 h

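Following 48 hours of exposure in 96-well plates, responses at five concentrations were used to interpolate endpoints linearly. The concentration for 50% growth inhibition is given as GI50.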 Calls of active or inactive are those of the source. No stated cut-off is given here; in the data, active = GI50 up to about 1.1 µM and inactive = higher.

Consider `CCOC(=O)c1c(CN2CCCC2)n(-c2ccccc2)c2cc(Br)c(O)cc12`, for which the GI50 in the experiment with CCRF-CEM is 2.06 µM (inactive); in the experiment with SR it was 18.7 µM (inactive); in the experiment on NCI-H460 it was 17 µM (inactive); in the experiment on NCI-H23, 19.3 µM (inactive); in the experiment on U-251 it was 16.3 µM (inactive); in the experiment with HL-60, 9.44 µM (inactive). For the same molecule, the GI50 is 17.2 µM (inactive) in the experiment with MDA-N; 16.5 µM (inactive) in the experiment with SNB-19; 16 µM (inactive) in the experiment on A549; 36.1 µM (inactive) in the experiment on BT-549; 26.4 µM (inactive) in the experiment with Hs-578T; 18.3 µM (inactive) with SK-MEL-2. The GI50 in the experiment on SK-MEL-28 is 15.1 µM (inactive); in the experiment with DU-145, 19.6 µM (inactive); in the experiment on MDA-MB-231, 17.8 µM (inactive); in the experiment with A498, 16.4 µM (inactive); in the experiment with RPMI-8226, 16.2 µM (inactive); in the experiment with 786-0 it was 16.7 µM (inactive). Further, the GI50 in the experiment with SF-295 was 16.6 µM (inactive); in the experiment on SF-268, 19.9 µM (inactive).

Regarding `OC1CCC(COC(c2ccccc2)(c2ccccc2)c2ccccc2)O1` (stereo not given), the GI50 is 14.2 µM (inactive) in the experiment on CCRF-CEM; > 10 µM (inactive) in the experiment on SR; 21 µM (inactive) in the experiment on NCI-H460; 18 µM (inactive) in the experiment on NCI-H23; 18.8 µM (inactive) in the experiment on U-251; 18.2 µM (inactive) in the experiment on HL-60. Further, the GI50 with MDA-N is 18.7 µM (inactive); in the experiment with SNB-19, 21.1 µM (inactive); in the experiment on A549 it was 17.7 µM (inactive); in the experiment with BT-549, 23.8 µM (inactive); in the experiment on Hs-578T, 16.6 µM (inactive); with SK-MEL-2 it was 18.1 µM (inactive). The GI50 was 18 µM (inactive) with SK-MEL-28; 20.8 µM (inactive) in the experiment with DU-145; 16.6 µM (inactive) with MDA-MB-231; 20.2 µM (inactive) in the experiment with A498; 19.5 µM (inactive) with RPMI-8226; 19.4 µM (inactive) with 786-0. The GI50 in the experiment with SF-295 is 15.9 µM (inactive); with SF-268, 16.9 µM (inactive).

With `CN(C)CCCSc1nc2c(c(=N)n1-c1ccccc1)c(=S)n(-c1ccccc1)c(=S)n2-c1ccccc1`, the GI50 in the experiment on CCRF-CEM is 0.43 µM (active); with SR, 0.237 µM (active); with NCI-H460, 1.82 µM (inactive); with NCI-H23, 2.07 µM (inactive); in the experiment with U-251, 1.75 µM (inactive); in the experiment with HL-60 it was 0.798 µM (active). The GI50 in the experiment with MDA-N was 1.71 µM (inactive); with SNB-19 it was 2.51 µM (inactive); in the experiment with A549 it was 1.95 µM (inactive); in the experiment on BT-549, 1.68 µM (inactive); with Hs-578T, 3.12 µM (inactive); with SK-MEL-2 it was 2.12 µM (inactive). The GI50 was 2.04 µM (inactive) with SK-MEL-28; 1.67 µM (inactive) in the experiment with DU-145; 1.61 µM (inactive) with MDA-MB-231; 2.42 µM (inactive) in the experiment with A498; 0.39 µM (active) in the experiment on RPMI-8226; 1.27 µM (inactive) with 786-0. Also, the GI50 was 5.21 µM (inactive) in the experiment with SF-295 and 1.73 µM (inactive) with SF-268.

`Cc1c(O)oc2ccccc2c1=O`: the GI50 with CCRF-CEM, in the experiment with SR, in the experiment on NCI-H460, with NCI-H23, with U-251 and in the experiment on HL-60 was > 100 µM (inactive) in each case. Further, the GI50 in the experiment on MDA-N, in the experiment with SNB-19, in the experiment on A549, in the experiment with BT-549, in the experiment with Hs-578T and with SK-MEL-2 was > 100 µM (inactive) each time. The GI50 in the experiment on SK-MEL-28, in the experiment with DU-145, in the experiment on MDA-MB-231, with A498, in the experiment with RPMI-8226 and with 786-0 was > 100 µM (inactive) throughout. Besides, the GI50 in the experiment on SF-295 and with SF-268 was > 100 µM (inactive) throughout.

Consider `COc1ccccc1Nc1nc(N)nc(N)c1N`, for which the GI50 was 27 µM (inactive) with CCRF-CEM; 23.7 µM (inactive) with SR; 38.5 µM (inactive) in the experiment with NCI-H460; 66.1 µM (inactive) with NCI-H23; 64.3 µM (inactive) with U-251; 29.1 µM (inactive) in the experiment with HL-60. Moreover, the GI50 was 17.6 µM (inactive) with MDA-N; > 100 µM (inactive) in the experiment on SNB-19; > 100 µM (inactive) in the experiment with A549; > 100 µM (inactive) with BT-549; > 100 µM (inactive) in the experiment on Hs-578T; > 100 µM (inactive) in the experiment on SK-MEL-2. The GI50 is > 100 µM (inactive) with SK-MEL-28; > 100 µM (inactive) in the experiment on DU-145; 29.4 µM (inactive) with MDA-MB-231; > 100 µM (inactive) in the experiment on A498; 34.4 µM (inactive) in the experiment on RPMI-8226; 33.4 µM (inactive) in the experiment with 786-0. The GI50 in the experiment on SF-295 is 28.6 µM (inactive); in the experiment with SF-268 it was 64.1 µM (inactive).

For the molecule `COC(=O)c1ccc(OCc2ccc3nc(-c4ccccc4)c(Cl)nc3c2)cc1`, the GI50 was > 100 µM (inactive) in the experiment on CCRF-CEM; > 100 µM (inactive) in the experiment with SR; > 100 µM (inactive) with NCI-H460; 47.2 µM (inactive) in the experiment with NCI-H23; 27.7 µM (inactive) in the experiment with U-251; 40.6 µM (inactive) in the experiment with HL-60. The GI50 in the experiment on MDA-N was > 100 µM (inactive); in the experiment with SNB-19, 92.5 µM (inactive); in the experiment with A549, 86.9 µM (inactive); with BT-549 it was > 100 µM (inactive); in the experiment on Hs-578T, 30.1 µM (inactive); with SK-MEL-2 it was 84.7 µM (inactive). Moreover, the GI50 in the experiment with SK-MEL-28 is > 100 µM (inactive); in the experiment on DU-145, > 100 µM (inactive); in the experiment on MDA-MB-231, 23.2 µM (inactive); in the experiment on A498, > 100 µM (inactive); in the experiment with RPMI-8226 it was > 100 µM (inactive); with 786-0 it was 21 µM (inactive). For the same molecule, the GI50 in the experiment with SF-295 was 46 µM (inactive); with SF-268, 42.9 µM (inactive).

Regarding `COC(=O)C[C@H](CCSC)NC(=O)C[C@H](CCSC)NC(=O)C[C@H](CCSC)NC(=O)OC(C)(C)C`, the GI50 with CCRF-CEM was 67.1 µM (inactive); in the experiment with SR it was 39.6 µM (inactive); in the experiment on NCI-H460, 69.8 µM (inactive); with NCI-H23, 47.2 µM (inactive); in the experiment with U-251 it was 19.5 µM (inactive); with HL-60, 1.44 µM (inactive). Further, the GI50 in the experiment with MDA-N was 48.3 µM (inactive); with SNB-19, 20.7 µM (inactive); with A549, 43.6 µM (inactive); in the experiment on BT-549, 69.3 µM (inactive); with Hs-578T, 30.3 µM (inactive); in the experiment with SK-MEL-2, 24.2 µM (inactive). The GI50 with SK-MEL-28 was > 100 µM (inactive); with DU-145, 87.3 µM (inactive); in the experiment on MDA-MB-231, 38.5 µM (inactive); in the experiment with A498, 21 µM (inactive); in the experiment with RPMI-8226, > 100 µM (inactive); in the experiment on 786-0, 33.6 µM (inactive). The GI50 was 21.8 µM (inactive) in the experiment on SF-295 and 20.4 µM (inactive) in the experiment on SF-268.
